US20260053811A1, “METHODS OF TREATING HYPERTENSION IN OBESE SUBJECTS” (Mineralys Therapeutics, Inc., priority 2022, published 2026)
Marks after values point to notes of the source that are not given here.

Tested on: hypertensive subjects
Assay: Seated automated office blood pressure (AOBP) in randomized, placebo-controlled, dose-ranging study
Assay type: in vivo, human
Design: Difference from placebo in change in blood pressure: unit not given here
Description: A randomized, double-blinded, placebo-controlled, dose-ranging, multicenter study was conducted to evaluate the effect of orally administered Compound A HBr on blood pressure for the treatment of hypertension in male and female subjects ≥18 years of age.
The study consists of two parts. For enrollment into Part 1 of the study, a subject's value of plasma renin activity (PRA) must be ≤1 ng/mL/h based on morning measurement. If the value of PRA >1 ng/mL/h based on morning measurement, then subjects may be eligible to enter Part 2 of the study.
For Part 1, 163 enrolled subjects ≥18 years of age were randomized into 6 equal treatment groups (1:1:1:1:1:1) to 12.5 mg BID, 25 mg BID, 12.5 mg QD, 50 mg QD, 100 mg QD, or placebo. After a review of interim clinical data, the 2 lowest dose levels (12.5 mg QD and 12.5 mg BID) were stopped for future randomization due to a lack of consistent meaningful reduction of blood pressure, but the patients randomized to that point remained in the study through completion. Thus, after the review of interim clinical data, subjects were randomized into 4 equal treatment groups (1:1:1:1) to 25 mg BID, 50 mg QD, 100 mg QD, or placebo.
For Part 2, 36 enrolled subjects ≥18 years of age were randomized (5:1) to either 100 mg QD Compound A HBr or placebo such that the Compound A HBr treatment group consisted of approximately 30 subjects and the placebo treatment group will consist of approximately 6 subjects.
Subjects orally administered the assigned study drug (Compound A HBr or placebo) according to the assigned dosing regimen for 8 weeks beginning on Study Day 1. All subjects in Part 1 (regardless of dosing group) received BID dosing to preserve the integrity of the blind; active drug is administered as the morning dose for all QD dose groups. Subjects returned to the research facility or were seen by the clinical investigator or approved home health care professional at the end of Study Weeks 1, 2, 3, 4, 5, 6, 7, and 8 (±2 days) for protocol-defined efficacy and safety assessments and procedures, assessment of adverse events (AEs), and confirmation of compliance with study drug usage. Subjects also completed a telephone visit and blood pressure (BP) check at home approximately 3 days post last dose of study drug. Subjects attended up to 14 full clinic visits, including a pre-Screening visit, a Screening/start of Placebo Run-in visit, a second visit during Placebo Run-in, a clinic visit to initiate the ABPM procedure, a Randomization visit, 8 weekly visits during double-blind treatment, and an end-of-study visit scheduled 4 weeks after the last study treatment for final efficacy and safety assessments.
An automated oscillometric sphygmomanometer device was used to measure the subjects' systolic and diastolic blood pressure in office after approximately 5 minutes of rest in the seated position.
The primary endpoint is the change in office-measured (mean of last 2 of 5 unattended measurements using an automated oscillometric sphygmomanometer device after approximately 5 minutes of rest in the seated position) systolic blood pressure (SBP) from baseline to the end of Study Week 8.
Secondary endpoints of this study were: • (a) Change in 24-hour ambulatory blood pressure monitoring (ABPM) parameters (systolic and diastolic) from baseline to the end of Study Week 7. • (b) Change in office-measured SBP from baseline to the end of Study Weeks 1, 2, 3, 4, 5, 6, and 7. • (c) Change in office-measured diastolic blood pressure (DBP) from baseline to the end of Study Weeks 1, 2, 3, 4, 5, 6, 7, and 8. • (d) Proportion of subjects who achieve office-measured BP of ≤130/80 mm Hg by the end of Study Week 8.

## CC(=O)N[C@H]1CC[C@H](NC(=O)CN2CCN(c3nncc(-c4ccc(C)cc4)n3)CC2)CC1 [Compound A HBr]
25 mg BID, Thiazide Yes
  Difference from placebo in change in blood pressure: −8.3
25 mg BID, Week 1, Part 1, FAS
  Seated AOBP DBP change from baseline (CFB), Mean (SD): −2.22 (5.68) mmHg
  Seated AOBP DBP, Mean (SD): 76.70 (9.28) mmHg
  Seated AOBP SBP change from baseline (CFB), Mean (SD): −6.57 (10.78) mmHg
  Seated AOBP SBP, Mean (SD): 134.37 (14.17) mmHg
25 mg BID, Week 2, Part 1, FAS
  Seated AOBP DBP change from baseline (CFB), Mean (SD): −2.42 (8.03) mmHg
  Seated AOBP DBP, Mean (SD): 76.50 (10.74) mmHg
  Seated AOBP SBP change from baseline (CFB), Mean (SD): −6.37 (13.43) mmHg
  Seated AOBP SBP, Mean (SD): 134.57 (17.75) mmHg
25 mg BID, Week 3, Part 1, FAS
  Seated AOBP DBP change from baseline (CFB), Mean (SD): −0.55 (14.99) mmHg
  Seated AOBP DBP, Mean (SD): 78.72 (15.35) mmHg
  Seated AOBP SBP change from baseline (CFB), Mean (SD): −5.34 (18.35) mmHg
  Seated AOBP SBP, Mean (SD): 136.34 (19.78) mmHg
25 mg BID, Week 4, Part 1, FAS
  LSM Δ with Placebo, seated AOBP DBP (MMRM): −5.94 mmHg
  Modelled (MMRM) LSM (SEM) change from baseline, seated AOBP DBP: −6.47 (1.41) mmHg
  Seated AOBP DBP change from baseline (CFB), Mean (SD): −5.80 (7.01) mmHg
  Seated AOBP DBP, Mean (SD): 73.26 (7.79) mmHg
  Seated AOBP SBP change from baseline (CFB), Mean (SD): −9.63 (12.34) mmHg
  Seated AOBP SBP, Mean (SD): 131.85 (13.59) mmHg
25 mg BID, Week 5, Part 1, FAS
  Seated AOBP DBP change from baseline (CFB), Mean (SD): −2.82 (8.82) mmHg
  Seated AOBP DBP, Mean (SD): 76.29 (9.91) mmHg
  Seated AOBP SBP change from baseline (CFB), Mean (SD): −9.16 (15.72) mmHg
  Seated AOBP SBP, Mean (SD): 132.25 (16.30) mmHg
25 mg BID, Week 6, Part 1, FAS
  Seated AOBP DBP change from baseline (CFB), Mean (SD): −3.07 (8.82) mmHg
  Seated AOBP DBP, Mean (SD): 76.04 (10.57) mmHg
  Seated AOBP SBP change from baseline (CFB), Mean (SD): −7.09 (11.66) mmHg
  Seated AOBP SBP, Mean (SD): 134.32 (13.96) mmHg
25 mg BID, Week 7, Part 1, FAS
  Seated AOBP DBP change from baseline (CFB), Mean (SD): −4.87 (8.84) mmHg
  Seated AOBP DBP, Mean (SD): 73.89 (10.76) mmHg
  Seated AOBP SBP change from baseline (CFB), Mean (SD): −11.00 (13.60) mmHg
  Seated AOBP SBP, Mean (SD): 130.74 (15.42) mmHg
25 mg BID, Week 8, Part 1, FAS
  LSM Δ from Placebo, change from baseline in seated AOBP SBP (MMRM): −6.97 mmHg
  LSM Δ with Placebo, seated AOBP DBP (MMRM): −2.49 mmHg
  Modelled (MMRM) LSM (SEM) change from baseline, seated AOBP DBP: −4.12 (1.68) mmHg
  Modelled (MMRM) LSM (SEM) change from baseline, seated AOBP SBP: −11.07 (2.65) mmHg
  Seated AOBP DBP change from baseline (CFB), Mean (SD): −3.68 (11.71) mmHg
  Seated AOBP DBP, Mean (SD): 75.43 (13.06) mmHg
  Seated AOBP SBP change from baseline (CFB), Mean (SD): −10.13 (14.02) mmHg
  Seated AOBP SBP, Mean (SD): 131.29 (16.59) mmHg
  Subjects with seated AOBP SBP/DBP ≤130/80 mmHg: No: 17 (56.7) n (%)
  Subjects with seated AOBP SBP/DBP ≤130/80 mmHg: Yes: 13 (43.3) n (%)
50 mg QD, BMI 25-30
  Difference from placebo in change in blood pressure: 2.0
50 mg QD, BMI >30
  Difference from placebo in change in blood pressure: −16.6*
50 mg QD, Part 1, Week 8
  Mean placebo-adjusted reduction in AOBP SBP: 9.58 mmHg
  Placebo-adjusted reduction in AOBP DBP, thiazide diuretic use at baseline: −7.7 mmHg
  Placebo-adjusted reduction in AOBP SBP from baseline, by baseline AOBP SBP tertile: −19.9 mmHg
